*1 amine or outer side, *2 acyl side, *3 side chain or, on linkers, in order; H or OH if unused. Where a SMILES comes first, the peptide text is derived from it. [ ]: non-standard residue; d: D form. Glyψ(E-CHCH)Leu = CC(C)C[C@H](/C=C/CN[*:1])C(=O)[*:2]; X5 = O=C(/C=C/[C@H](O)[C@H](Cc1ccccc1)N[*:1])[*:2]; Glyψ(CH2S)Leu = CC(C)C[C@H](SCCN[*:1])C(=O)[*:2]; Pro(trans-4-F) = O=C(O)[C@@H]1C[C@@H](F)CN1; X8 = O=C(CSC[C@H](Cc1ccccc1)N[*:1])[*:2]; X1 = CC(C)C[C@H](CCCN[*:1])C(=O)[*:2]; Arg(Me) = CNC(=N)NCCC[C@H](N)C(=O)O; Ala(cPr) = N[C@@H](CC1CC1)C(=O)O; Hyp = O=C(O)[C@@H]1C[C@@H](O)CN1; tBuAla = CC(C)(C)C[C@H](N)C(=O)O; 3Pal = N[C@@H](Cc1cccnc1)C(=O)O; Aad = N[C@@H](CCCC(=O)O)C(=O)O; Cha = N[C@@H](CC1CCCCC1)C(=O)O; Nle = CCCC[C@H](N)C(=O)O
System: metastin receptors
Test: Measurement of agonist activity by assaying changes in intracellular calcium ion level (FLIPR, Fluo-4 NW)
Type: cell-based, human
Conditions: specific activity of the EC50 of a test compound based on the EC50 of Metastin (45-54), metastin receptor expression CHO cells
Method: 1) Preparation of Human Metastin and Rat Metastin Stable Expression Cell Lines
Human metastin and rat metastin stable expression cell lines were obtained by transfecting the expression plasmid for animal cells into CHO/dhfr^− cells using CellPhect Transfection Kit (manufactured by GE Healthcare). First, 240 μL of Buffer A (attached to CellPhect Transfection Kit) was added to 9.6 μg of plasmid DNA dissolved in 240 μL of distilled water followed by stirring. After the mixture was settled for 10 minutes, 480 μL of Buffer B (attached to CellPhect Transfection Kit) was added to the mixture, which was vigorously stirred to form liposomes containing the DNA. Then, 4×10^5 CHO/dhfr^− cells (obtained from ATCC) were inoculated on a 60 mm Petri dish. After culturing the cells in Ham's F-12 medium (manufactured by Nissui Seiyaku Co., Ltd.) supplemented with 10% fetal bovine serum (manufactured by BIO […], Inc.) at 37° C. for 2 days in 5% carbon dioxide gas, […] of the liposomes were dropwise added to the cells on the Petri dish. After culturing the cells in a CO2 incubator (5% CO2, 37° C.) for 6 hours, the cells were washed twice with serum-free Ham's F-12 medium and 3 mL of 15% glycerol was added to the cells on the Petri dish followed by treatment for 2 minutes. The cells were again washed twice with serum-free Ham's F-12 medium followed by incubation in Ham's F-12 medium supplemented with 10% fetal bovine serum in a CO2 incubator (5% CO2, 37° C.) for 15 hours. The cells were dispersed by trypsin treatment to recover from the Petri dish. The recovered cells were inoculated on a 6-well plate in 1.25×10^4 cells each/well and incubation was initiated in a CO2 incubator (5% CO2, 37° C.) in Dulbecco's modified Eagle medium (DMEM, manufactured by Nissui Seiyaku) containing 10% dialyzed fetal bovine serum (manufactured by JRH BIOSCIENCES, Inc.). The plasmid-transfected CHO transformants grew in the medium but the non-transfected cells gradually died, accordingly the medium was exchanged on Days 1 and 2 after the initiation of incubation to remove the dead cells. Approximately 20 colonies of the CHO transformants that kept growing on Days 8 to 10 after the incubation were isolated. From the cells in these colonies, cells showing high reactivity with the ligand peptide metastin (hereinafter merely referred to as h175 KB19 and h175 KB29 strains) were selected to provide for the following experiment.
Human metastin expression CHO cell line (h175 KB19 strain is described in a separate section) and rat metastin expression CHO cell line (h175 KB29 strain is described in a separate section) were seeded in a 96-well plate (type 3904, manufactured by Corning) at 3×10^4 cells/well, followed by incubation in a CO2 incubator (5% CO2, 37° C.) for 24 hours. For the medium, MEMα medium (nucleic acid-free, manufactured by Nikken Bio Medical Laboratory) supplemented with dialyzed 10% fetal bovine serum (manufactured by Thermo, MultiSer) was used.
3) Loading with Fluo-4 NW in Cells
As an assay buffer, 1× Hanks' balanced salt solution (HBSS, manufactured by GIBCO) supplemented with 0.1% BSA, 20 mM HEPES (pH 7.4, manufactured by GIBCO) and 1 mM Probenecid (manufactured by Molecular Probes) was prepared. The medium in the wells of the cell-seeded plate was removed and 100 μL each of the assay buffer (kept warm at 37° C.) was added to each well. After 10 mL of the assay buffer (the volume for assaying two plates) was charged in one Fluo-4NW dye mix (Component A, Fluo-4 NW calcium assay kit (starter pack), manufactured by Molecular Probes) bottle, the mixture was gently stirred to prepare the Fluo-4 NW loading solution. This loading solution was charged in each well by 50 μl each and reacted in a CO2 incubator (5% CO2, 37° C.) for 30 minutes for loading with Fluo-4 NW into the cells. Subsequently, the cells were settled at room temperature (25° C.) for 15 minutes and then used for assay.
4) Measurement of Agonist Activity […]

Row | Compound | Specific Activity
1 | CCCC[C@H](NC(=O)CNC(=O)[C@H](CC1CCCCC1)NC(=O)[C@@H](NC(=O)[C@H](CC(N)=O)NC(=O)[C@@H]1C[C@@H](O)CN1C(=O)[C@@H](Cc1ccc(O)cc1)NC(C)=O)[C@@H](C)O)C(=O)N[C@@H](CCCNC(=N)NC)C(=O)N[C@@H](Cc1c[nH]c2ccccc12)C(N)=O [Compound No. 932, des(1)-Ac-[D-Tyr2,Hyp3,Thr5,Cha6,Nle8,Arg(Me)9,Trp10]MS10] (Ac-[dY][Hyp]NT[Cha]G[Nle][Arg(Me)]W-NH2) | 0.6
2 | CNC(=N)NCCC[C@H](NC(=O)[C@H](CC(C)C)NC(=O)NCC[C@H](Cc1ccccc1)NC(=O)[C@@H](NC(=O)[C@H](CC(N)=O)NC(=O)[C@@H]1C[C@@H](O)CN1C(=O)[C@@H](Cc1ccc(O)cc1)NC(C)=O)[C@@H](C)O)C(=O)N[C@@H](Cc1c[nH]c2ccccc12)C(N)=O [Compound No. 968, des(1)-Ac-[D-Tyr2,Hyp3,Thr5,Phe6Ψ(CH2CH2)AzaGly7,Arg(Me)9,Trp10)MS10] | 0.6
3 | CNC(=N)NCCC[C@H](NC(=O)[C@H](CC(C)C)NC(=O)CNC(=O)[C@H](Cc1cccnc1)NC(=O)[C@@H](NC(=O)[C@H](CC(N)=O)NC(=O)[C@@H]1C[C@@H](O)CN1C(=O)[C@@H](Cc1ccc(O)cc1)NC(C)=O)[C@@H](C)O)C(=O)N[C@@H](Cc1c[nH]c2ccccc12)C(N)=O [Compound No. 848, des(1)-Ac-[D-Tyr2,Hyp3,Thr5,Pya(3)6,Arg(Me)9,Trp10]MS10] (Ac-[dY][Hyp]NT[3Pal]GL[Arg(Me)]W-NH2) | 0.9
4 | CNC(=N)NCCC[C@H](NC(=O)[C@@H](/C=C/CNC(=O)[C@H](CC1CCCCC1)NC(=O)[C@@H](NC(=O)[C@H](CC(N)=O)NC(=O)[C@@H]1C[C@@H](O)CN1C(=O)[C@@H](Cc1ccc(O)cc1)NC(C)=O)[C@@H](C)O)CC(C)C)C(=O)N[C@@H](Cc1c[nH]c2ccccc12)C(N)=O [Compound No. 902, des(1)-Ac-[D-Tyr2,Hyp3,Thr5,Cha6,Gly7Ψ((E)CH═CH)Leu8,Arg(Me)9,Trp10]MS10] (Ac-[dY][Hyp]NT[Cha][Glyψ(E-CHCH)Leu][Arg(Me)]W-NH2) | 0.6
5 | CC(=O)N[C@H](Cc1ccc(O)cc1)C(=O)N1C[C@H](O)C[C@H]1C(=O)N[C@@H](CC(N)=O)C(=O)N[C@H](C(=O)N[C@@H](CC1CCCCC1)C(=O)NCCC[C@@H](CC(C)C)C(=O)N[C@@H](CCCNC(=N)N)C(=O)N[C@@H](Cc1c[nH]c2ccccc12)C(N)=O)[C@@H](C)O [Compound No. 956, des(1)-Ac-[D-Tyr2,Hyp3,Thr5,Cha6,Gly7Ψ(CH2CH2)Leu8,Trp10]MS10] (Ac-[dY][Hyp]NT[Cha][X1]RW-NH2) | 1.1
6 | CNC(=N)NCCC[C@H](NC(=O)[C@H](CC1CC1)NC(=O)CNC(=O)[C@H](CC1CCCCC1)NC(=O)[C@@H](NC(=O)[C@H](CC(N)=O)NC(=O)[C@H](CCCC(=O)O)NC(=O)[C@@H](Cc1ccc(O)cc1)NC(C)=O)[C@@H](C)O)C(=O)N[C@@H](Cc1c[nH]c2ccccc12)C(N)=O [Compound No. 910, des(1)-Ac-[D-Tyr2,Aad3,Thr5,Cha6,Ala(cPr)8,Arg(Me)9,Trp10]MS10] (Ac-[dY][Aad]NT[Cha]G[Ala(cPr)][Arg(Me)]W-NH2) | 1.1
7 | CNC(=N)NCCC[C@H](NC(=O)[C@H](CC(C)(C)C)NC(=O)CNC(=O)[C@H](CC1CCCCC1)NC(=O)[C@@H](NC(=O)[C@H](CC(N)=O)NC(=O)[C@@H]1C[C@@H](O)CN1C(=O)[C@@H](Cc1ccc(O)cc1)NC(C)=O)[C@@H](C)O)C(=O)N[C@@H](Cc1c[nH]c2ccccc12)C(N)=O [Compound No. 933, des(1)-Ac-[D-Tyr2,Hyp3,Thr5,Cha6,Leu(Me)8,Arg(Me)9,Trp10]MS10] (Ac-[dY][Hyp]NT[Cha]G[tBuAla][Arg(Me)]W-NH2) | 1.4
8 | CNC(=N)NCCC[C@H](NC(=O)[C@H](CC(C)C)SCCNC(=O)[C@H](CC1CCCCC1)NC(=O)[C@@H](NC(=O)[C@H](CC(N)=O)NC(=O)[C@@H]1C[C@@H](O)CN1C(=O)[C@@H](Cc1ccc(O)cc1)NC(C)=O)[C@@H](C)O)C(=O)N[C@@H](Cc1c[nH]c2ccccc12)C(N)=O [Compound No. 931, des(1)-Ac-[D-Tyr2,Hyp3,Thr5,Cha6,Gly7Ψ(CH2S)Leu8,Arg(Me)9,Trp10]MS10] (Ac-[dY][Hyp]NT[Cha][Glyψ(CH2S)Leu][Arg(Me)]W-NH2) | 1.7
9 | CNC(=N)NCCC[C@H](NC(=O)[C@H](CC(C)C)NC(=O)CSC[C@H](Cc1ccccc1)NC(=O)[C@@H](NC(=O)[C@H](CC(N)=O)NC(=O)[C@@H]1C[C@@H](O)CN1C(=O)[C@@H](Cc1ccc(O)cc1)NC(C)=O)[C@@H](C)O)C(=O)N[C@@H](Cc1c[nH]c2ccccc12)C(N)=O [Compound No. 944, des(1)-Ac-[D-Tyr2,Hyp3,Thr5,Phe6Ψ(CH2S)Gly7,Arg(Me)9,Trp10]MS10] (Ac-[dY][Hyp]NT[X8]L[Arg(Me)]W-NH2) | 0.7
10 | CNC(=N)NCCC[C@H](NC(=O)[C@H](CC(C)C)NC(=O)[C@H](COC)NC(=O)[C@H](Cc1ccccc1)NC(=O)[C@@H](NC(=O)[C@H](CC(N)=O)NC(=O)[C@@H]1C[C@@H](O)CN1C(=O)[C@@H](Cc1ccc(O)cc1)NC(C)=O)[C@@H](C)O)C(=O)N[C@@H](Cc1c[nH]c2ccccc12)C(N)=O [Compound No. 828, des(1)-Ac-[D-Tyr2,Hyp3,Thr5,Ser(Me)7,Arg(Me)9,Trp10]MS10] (Ac-[dY][Hyp]NTFS(Me)L[Arg(Me)]W-NH2) | 1.2
11 | des(1)-Ac-[D-Tyr2,Pro(4F)3,Thr5,Cha6,Ala(cPr)8,Arg(Me)9,Trp10]MS10 (Ac-[dY][Pro(trans-4-F)]NT[Cha]G[Ala(cPr)][Arg(Me)]W-NH2; SMILES CNC(=N)NCCC[C@H](NC(=O)[C@H](CC1CC1)NC(=O)CNC(=O)[C@H](CC1CCCCC1)NC(=O)[C@@H](NC(=O)[C@H](CC(N)=O)NC(=O)[C@@H]1C[C@@H](F)CN1C(=O)[C@@H](Cc1ccc(O)cc1)NC(C)=O)[C@@H](C)O)C(=O)N[C@@H](Cc1c[nH]c2ccccc12)C(N)=O) [Compound No. 959] | 0.4
12 | CNC(=N)NCCC[C@H](NC(=O)[C@H](COC)NC(=O)CNC(=O)[C@H](Cc1ccccc1)NC(=O)[C@@H](NC(=O)[C@H](CC(N)=O)NC(=O)[C@@H]1C[C@@H](O)CN1C(=O)[C@@H](Cc1ccc(O)cc1)NC(C)=O)[C@@H](C)O)C(=O)N[C@@H](Cc1c[nH]c2ccccc12)C(N)=O [Compound No. 917, des(1)-Ac-[D-Tyr2,Hyp3,Thr5,Ser(Me)8,Arg(Me)9,Trp10]MS10] (Ac-[dY][Hyp]NTFGS(Me)[Arg(Me)]W-NH2) | 0.8
13 | CNC(=N)NCCC[C@H](NC(=O)[C@H](CC(C)C)NC(=O)/C=C/[C@H](O)[C@H](Cc1ccccc1)NC(=O)[C@@H](NC(=O)[C@H](CC(N)=O)NC(=O)[C@@H]1C[C@@H](O)CN1C(=O)[C@@H](Cc1ccc(O)cc1)NC(C)=O)[C@@H](C)O)C(=O)N[C@@H](Cc1c[nH]c2ccccc12)C(N)=O [Compound No. 858, des(1)-Ac-[D-Tyr2,Hyp3,Thr5,Phe6Ψ((S)CHOH—(E)CH=)Gly7,Arg(Me)9,Trp10]MS10] (Ac-[dY][Hyp]NT[X5]L[Arg(Me)]W-NH2) | 1.7
14 | CC(=O)N[C@H](Cc1ccc(O)cc1)C(=O)N1C[C@H](O)C[C@H]1C(=O)N[C@@H](CC(N)=O)C(=O)N[C@H](C(=O)N[C@@H](CC1CCCCC1)C(=O)NC/C=C/[C@@H](CC(C)C)C(=O)N[C@@H](CCCNC(=N)N)C(=O)N[C@@H](Cc1c[nH]c2ccccc12)C(N)=O)[C@@H](C)O [Compound No. 926, des(1)-Ac-[D-Tyr2,Hyp3,Thr5,Cha6,Gly7Ψ((E)CH═CH)Leu8,Trp10]MS10] (Ac-[dY][Hyp]NT[Cha][Glyψ(E-CHCH)Leu]RW-NH2) | 0.6
